Test results taken from patent publication US9513288B2, “Isoform-selective inhibitors and activators of PDE3 cyclic nucleotide phosphodiesterases” (The United States of America, as represented by the …, priority 2001, dated 2016).
Like-named read-outs stand apart in the source and are kept apart here.

Legend:
PDE3A1 [1] = assay: cAMP-hydrolytic activity of FLAG-tagged PDE3A1 in transfected HEK293 cells; format: cell-based, human; settings: 1 mM dBcAMP 1 hour; for cAMP-hydrolytic activity of PDE3A1: 1 μM isoproterenol 90 sec, 50 μM 8-pCPT-2′-O-Me-cAMP or 0.1 mM sodium butyrate 1 hour
Method: FIG. 3 Illustrates an illustrative effect of d8-pCPT-2′-O-Me-cAMP and sodium butyrate on PDE3A1 activity, wherein HEK293 cells were transfected with FLAG-tagged PDE3A and treated with 50 μM d8-pCPT-2′-O-Me-cAMP, 0.1 mM sodium butyrate or 1 mM dBcAMP for 1 hour. PDE3A activity was assayed as described;
(§1) FIGS. 9A-9B illustrate stimulation of PDE3A2 and PDE3A1 activity in response to PKC and PKA activation. (A) HEK293 cells were transfected with FLAG-tagged PDE3A2, with and without alanine substitution at S428, and treated with 10 ng/ml PMA for 15 min or 1 mM dBcAMP for 1 hour. (B) HEK293 cells were transfected with FLAG-tagged PDE3A1, with and without alanine substitutions at S312 and S428, and treated with 1 μM isoproterenol for 90 sec, 10 ng/ml PMA for 15 min or 1 mM dBcAMP for 1 hour. PDE3 activity was assayed as described. PDE3A constructs were immunoprecipitated with anti-FLAG antibody, and phosphorylation was analyzed by immunoblotting with anti-FLAG and phosphospecific antibodies as indicated; and
(§2) PKA and PKC modulate the catalytic activity of PDE3A and PDE3A2 through distinct molecular mechanisms: In view of the reported effects of PKA and PKC on PDE3A activity^3-6, we examined the effects of phosphorylation at S312 and S428 on the cAMP-hydrolytic activity of PDE3A isoforms in transfected HEK293 cells. […] This stimulation was not observed when cells were treated with either the EPAC activator 8-pCPT-2′-O-Me-cAMP or with sodium butyrate (FIG. 3). […] To determine whether similar consequences of phosphorylation occur in the case of PDE3A isoforms, protein extracts from transfected HEK293 cells, untreated or exposed to either isoproterenol or PMA, were analyzed by gel-filtration chromatography, measurement of catalytic activity and Western blotting. Under basal conditions, PDE3 activity and protein was recovered in a biphasic pattern in low- and high-molecular-weight peaks (FIG. 5).
(§3) Measurement of cAMP-hydrolytic activity: cAMP-hydrolytic activity was quantified at 30° C. by the two-step snake-venom method with [^3H]cAMP (1 μM) as substrate; PDE3 activity was quantified by measuring activity in the absence and presence of cilostamide. The amount of protein used per assay and the incubation times were adjusted to ensure that no more than 20% of the total cyclic nucleotide was hydrolyzed during the assay.
(§4) Treatment of cells with pharmacologic agents: HEK293 cells expressing the human PDE3A constructs were incubated at 37° C. in serum-free medium containing isoproterenol for 90 sec or PMA for 15 min. At the end of the incubation period, cells were solubilized in lysis buffer containing 20 mM MOPS pH 7.2, 15 mM MgCl2, 0.5% NP40, 150 mM NaCl, 5 mM EDTA, protease inhibitor cocktail and phosphatase inhibitor cocktail 3. Cellular debris was removed by centrifugation (1,000×g; 5 min), and cleared supernatants were used in the experiments.

PDE3 = assay: cAMP-hydrolytic activity in cytosolic and microsomal fractions of human myocardium; format: biochemical
PDE3A2 [2] = assay: cAMP-hydrolytic activity of FLAG-tagged PDE3A2 in transfected HEK293 cells; format: cell-based, human; settings: 10 ng/ml PMA 15 min, 1 mM dBcAMP 1 hour; for cAMP-hydrolytic activity of PDE3A2: isoproterenol
Method: as §1, §2, §3, §4

PDE3A2 [3] = assay: Phosphorylation and 14-3-3 binding of FLAG-tagged PDE3A2 in transfected HEK293 cells; format: cell-based, human; settings: for phosphorylation of PDE3A2 at S312 / phosphorylation of PDE3A2 at S428: isoproterenol 90 sec, dibutyryl cAMP 1 mM 1 hour, phosphospecific antibodies
Method: (§5) FIGS. 8A-8C Illustrate phosphorylation of PDE3A1 and PDE3A2 in response to PKA and PKC activation. HEK293 cells were transfected with FLAG-tagged PDE3A2 and PDE3A1. (A) Prior to lysis and immunoprecipitation with anti-FLAG antibodies, cells were treated with 1 µM isoproterenol for 90 sec or 10 ng/ml PMA for 15 min. (B) The experiment was carried out in cells incubated in the absence and presence of 100 μM IBMX before treatment with 1 µM isoproterenol for 90 sec. (C) FLAG-tagged PDE3A2 and PDE3A1, affinity-purified from transfected cells using anti-FLAG antibodies, were incubated in the absence or presence of 10 or 100 nM PKA and 200 μM ATP for 20 min at 30° C. Phosphorylation was analyzed by Western blotting with phosphospecific antibodies as indicated.
(§6) Furthermore, when affinity-purified FLAG-tagged PDE3A and PDE3A2 were phosphorylated in vitro by PKA, PDE3A2 was phosphorylated more robustly than PDE3A1 at both S312 and S428 (for both isoforms, S312 was phosphorylated more robustly than S428) […].
(§7) Activation of PKC by PMA in transfected HEK293 cells results in selective phosphorylation of PDE3A2 at S428: We compared the effects of PKC activation by PMA on the phosphorylation of FLAG-tagged PDE3A1 and PDE3A2 in transfected HEK293 cells.
(§8) Illustrative immunoprecipitation and immunoblotting: Endogenous or recombinant human PDE3A, its fragments or mutants, endogenous 14-3-3 or GST-14-3-3 proteins were immunoprecipitated by incubation overnight at 4° C. with anti-FLAG(M2)-coupled agarose beads or glutathione sepharose beads. Beads were centrifuged (5,000×g, 1 min) and washed four times with 1 ml buffer containing 20 mM MOPS pH 7.2, 15 mM MgCl2, 0.5% NP40 and 150 mM NaCl. Proteins were subjected to SDS-PAGE (8% polyacrylamide) and electrophoretic transfer to nitrocellulose membranes. Membranes were blocked using 5% nonfat milk in Tris-buffered saline (50 mM Tris pH 7.5, 150 mM NaCl, 0.1% Tween-20) for 1 h at room temperature and incubated with primary and HRP-conjugated secondary antibodies prepared in 5% (w/v) bovine serum albumin. Protein bands were visualized using an enhanced chemiluminescence detection system.
as §4

PDE3A1 [4] = assay: Phosphorylation and 14-3-3 binding of FLAG-tagged PDE3A1 in transfected HEK293 cells; format: cell-based, human; settings: PMA 10 ng/ml 15 min; for binding of PDE3A1 to endogenous 14-3-3 (co-immunoprecipitation) / phosphorylation of PDE3A1 at S312: isoproterenol 90 sec; for phosphorylation of PDE3A1 at S312 / phosphorylation of PDE3A1 at S428: dibutyryl cAMP 1 mM 1 hour, phosphospecific antibodies
Method: as §5, §6, §7, §8, §4

PDE3A1 [5] = assay: Gel-filtration chromatography and two-dimensional analysis of proteins co-immunoprecipitated with PDE3A1 from transfected HEK293 cells; format: cell-based, human; settings: 1 μM isoproterenol 90 sec
Method: (§9) FIGS. 5A-5B Illustrate two-dimensional analysis of HEK293 cell proteins co-immunoprecipitated with PDE3A, wherein FLAG-tagged PDE3A1- and PDE3A2-transfected HEK293 cells were treated with 1 μM isoproterenol for 90 sec or 10 ng/ml PMA for 15 min, respectively; untransfected, untreated cells served as controls. PDE3A1 and PDE3A2 were immunoprecipitated with anti-FLAG antibody. PDE3A isoforms and co-immunoprecipitated proteins were eluted with 250 μg/ml of 3×FLAG peptide and submitted to isoelectric focusing followed by SDS-PAGE. Proteins were visualized by silver staining, and spots were quantified and analyzed for inter-gel comparison using PDquest 8.1 software. Experiments were carried out in triplicate, such that (A) Images from one experiment are shown. […]
(§10) PKA and PKC modulate the catalytic activity of PDE3A and PDE3A2 through distinct molecular mechanisms: In view of the reported effects of PKA and PKC on PDE3A activity^3-6, we examined the effects of phosphorylation at S312 and S428 on the cAMP-hydrolytic activity of PDE3A isoforms in transfected HEK293 cells. […] To determine whether similar consequences of phosphorylation occur in the case of PDE3A isoforms, protein extracts from transfected HEK293 cells, untreated or exposed to either isoproterenol or PMA, were analyzed by gel-filtration chromatography, measurement of catalytic activity and Western blotting. […]

PDE3A2 [6] = assay: Gel-filtration chromatography and two-dimensional analysis of proteins co-immunoprecipitated with PDE3A2 from transfected HEK293 cells; format: cell-based, human; settings: 10 ng/ml PMA 15 min; isoelectric focusing and SDS-PAGE
Method: as §9, §10

3T3 adipocytes = assay: Association of PKB with PDE3B in microsomal fractions of 3T3 adipocytes; format: cell-based; settings: not shown
Description: The interactions of PKB with PDE3B were examined. Microsomal fractions of 3T3 adipocytes (which express PDE3B) were solubilized with NP-40 and fractionated by gel filtration. […] An association between PKB and PDE3B was confirmed by the ability of anti-PDE3B antibodies to co-immunoprecipitate the two proteins in the PDE3B peak (not shown).

[7] = treatment of dilated cardiomyopathy; cited from earlier work

CCCC(=O)[O-].[Na+] [sodium butyrate]
cAMP-hydrolytic activity of PDE3A1 (PDE3A1 [1]): not observed

O=C1CCc2cc(OCCCCc3nnnn3C3CCCCC3)ccc2N1 [cilostazol]
effects on cAMP-hydrolytic activity (PDE3; cytosolic versus microsomal fractions of human myocardium): more potent effects in microsomal fractions

CO[C@@H]1[C@@H]2OP(=O)(O)OC[C@H]2O[C@H]1n1c(Sc2ccc(Cl)cc2)nc2c(N)ncnc21 [8-pCPT-2′-O-Me-cAMP]
cAMP-hydrolytic activity of PDE3A1 (PDE3A1 [1]): not observed

CC(C)NCC(O)c1ccc(O)c(O)c1 (centres unmarked) [isoproterenol]
cAMP-hydrolytic activity of PDE3A1 (PDE3A1 [1]): did not stimulate cAMP-hydrolytic activity | cAMP-hydrolytic activity of PDE3A2 (PDE3A2 [2]): no stimulation of either isoform | phosphorylation of PDE3A2 at S312 in the presence of IBMX (PDE3A2 [3]; 100 μM IBMX before isoproterenol for 90 sec): readily phosphorylated at S312 | phosphorylation of PDE3A2 at S312 (PDE3A2 [3]; PMA 10 ng/ml 15 min): little phosphorylation of PDE3A2 | phosphorylation of PDE3A2 at S428 (PDE3A2 [3]; PMA 10 ng/ml 15 min): little phosphorylation of PDE3A2 | binding of PDE3A1 to endogenous 14-3-3 (co-immunoprecipitation) (PDE3A1 [4]): co-immunoprecipitation of endogenous 14-3-3 | phosphorylation of PDE3A1 at S312 (PDE3A1 [4]): phosphorylation of PDE3A1 at S312 | elution of PDE3 activity and protein on Superose 6 gel filtration, PDE3A1-transfected cells (PDE3A1 [5]): pronounced shift of activity and protein from low- to high-molecular-weight peaks | number of proteins co-immunoprecipitated with PDE3A1 (PDE3A1 [5]; isoelectric focusing and SDS-PAGE): increased the number of proteins that co-immunoprecipitated with PDE3A1

CCCCCCCCCCCCCC(=O)O[C@@H]1[C@@H](C)[C@@]2(O)[C@@H](C=C(CO)C[C@]3(O)C(=O)C(C)=C[C@@H]23)[C@@H]2C(C)(C)[C@]12OC(C)=O [PMA]
number of proteins co-immunoprecipitated with PDE3A2 (PDE3A2 [6]): increased the number of proteins that co-immunoprecipitated with PDE3A2 | stimulation of cAMP-hydrolytic activity of PDE3A2 with S428A substitution (PDE3A2 [2]): blocked | cAMP-hydrolytic activity of PDE3A2 (PDE3A2 [2]): increase in cAMP-hydrolysis | binding of PDE3A2 to endogenous 14-3-3 (co-immunoprecipitation) (PDE3A2 [3]; PMA 10 ng/ml 15 min): increased binding to endogenous 14-3-3 | phosphorylation of PDE3A2 at S312 (PDE3A2 [3]; PMA 10 ng/ml 15 min): no increase in phosphorylation at S312 | phosphorylation of PDE3A2 at S428 (PDE3A2 [3]; PMA 10 ng/ml 15 min): marked increase in phosphorylation at S428 | phosphorylation of PDE3A1 at S428 (PDE3A1 [4]): little increase in phosphorylation at S428 | binding of PDE3A1 to endogenous 14-3-3 (co-immunoprecipitation) (PDE3A1 [4]): little increase in binding to endogenous 14-3-3 | phosphorylation of PDE3A1 at S312 (PDE3A1 [4]): no increase in phosphorylation of S312

Cc1[nH]c(=O)c(C#N)cc1-c1ccncc1 [milrinone]
effects on cAMP-hydrolytic activity (PDE3): more potent effects in microsomal fractions

CCCC(=O)Nc1ncnc2c1ncn2[C@@H]1O[C@@H]2COP(=O)(O)O[C@H]2[C@H]1OC(=O)CCC [dibutyryl cAMP]
cAMP-hydrolytic activity of PDE3A1 (PDE3A1 [1]): stimulation of cAMP-hydrolytic activity | cAMP-hydrolytic activity of PDE3A1 construct with S312A and S428A substitutions (PDE3A1 [1]): same stimulation of catalytic activity | stimulation of cAMP-hydrolytic activity of PDE3A2 with S428A substitution (PDE3A2 [2]): similarly blocked by the S428A mutation | phosphorylation of PDE3A2 at S312 (PDE3A2 [3]; PMA 10 ng/ml 15 min): phosphorylation at both S312 and S428 | phosphorylation of PDE3A2 at S428 (PDE3A2 [3]; PMA 10 ng/ml 15 min): phosphorylation at both S312 and S428 | phosphorylation of PDE3A1 at S428 (PDE3A1 [4]): significant increase in the phosphorylation of PDE3A at both S312 and S428 | phosphorylation of PDE3A1 at S312 (PDE3A1 [4]): significant increase in the phosphorylation of PDE3A at both S312 and S428

insulin: insulin, used to treat 3T3 adipocytes
percentage of PKB co-purifying with PDE3B (3T3 adipocytes; gel filtration): appeared to increase the percentage of PKB co-purifying with PDE3B | phosphorylation of PKB (3T3 adipocytes): increased the phosphorylation of PKB

Nc1cc(-c2ccncc2)c[nH]c1=O [amrinone]
initial hemodynamic responses [7]: favorable hemodynamic responses
